How the values were obtained:
Cytochrome P450 3A4 = Cytochrome P450 3A4 (Homo sapiens, UniProt P08684); assay: Inhibition of CYP3A4; assay type: ADME
[1] = molecular target: T1, Insulin-like growth factor 1 receptor (Homo sapiens, UniProt P08069); assay: Inhibition of human recombinant full length IGF1R
[2] = molecular target: Tyrosine-protein kinase ABL1 (Homo sapiens, UniProt P00519); assay: Inhibition of Abl
[3] = molecular target: Tyrosine-protein kinase Fes/Fps (Homo sapiens, UniProt P07332); assay: Inhibition of FES
[4] = molecular target: Fibroblast growth factor receptor 3 (Homo sapiens, UniProt P22607); assay: Inhibition of FGFR3
[5] = molecular target: Tyrosine-protein kinase Fyn (Homo sapiens, UniProt P06241); assay: Inhibition of FYN
Focal adhesion kinase 1 = Focal adhesion kinase 1 (Homo sapiens, UniProt Q05397); assay: Inhibition of FAK
[6] = molecular target: Receptor-type tyrosine-protein kinase FLT3 (Homo sapiens, UniProt P36888); assay: Inhibition of FLT3
Sequence of Receptor-type tyrosine-protein kinase FLT3 (P36888 whole entry): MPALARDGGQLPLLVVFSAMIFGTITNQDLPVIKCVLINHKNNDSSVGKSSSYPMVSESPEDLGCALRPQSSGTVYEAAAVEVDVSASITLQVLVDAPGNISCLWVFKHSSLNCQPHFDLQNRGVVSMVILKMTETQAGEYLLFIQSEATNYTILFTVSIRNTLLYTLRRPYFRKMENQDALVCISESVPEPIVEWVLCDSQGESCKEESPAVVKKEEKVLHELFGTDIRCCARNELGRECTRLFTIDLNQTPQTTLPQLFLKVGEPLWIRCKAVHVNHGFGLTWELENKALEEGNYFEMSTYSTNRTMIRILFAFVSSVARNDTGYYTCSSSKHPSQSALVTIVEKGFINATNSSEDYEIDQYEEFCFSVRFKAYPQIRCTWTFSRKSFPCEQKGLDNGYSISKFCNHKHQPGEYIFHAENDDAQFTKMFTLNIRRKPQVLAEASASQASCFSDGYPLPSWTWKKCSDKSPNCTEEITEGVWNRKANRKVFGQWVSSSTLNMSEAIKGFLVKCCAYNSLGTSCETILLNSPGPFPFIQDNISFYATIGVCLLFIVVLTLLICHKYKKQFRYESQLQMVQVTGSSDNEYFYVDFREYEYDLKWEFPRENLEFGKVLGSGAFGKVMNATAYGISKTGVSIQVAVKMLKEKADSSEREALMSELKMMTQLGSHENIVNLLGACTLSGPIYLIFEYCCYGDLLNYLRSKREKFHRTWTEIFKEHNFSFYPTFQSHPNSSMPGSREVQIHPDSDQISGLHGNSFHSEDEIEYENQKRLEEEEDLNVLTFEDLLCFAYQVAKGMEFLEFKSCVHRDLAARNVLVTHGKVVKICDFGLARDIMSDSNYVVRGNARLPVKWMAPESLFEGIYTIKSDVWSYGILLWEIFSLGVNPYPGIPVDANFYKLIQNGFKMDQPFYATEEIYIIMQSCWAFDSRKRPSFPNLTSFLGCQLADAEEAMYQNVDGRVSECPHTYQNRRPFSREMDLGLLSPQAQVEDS

[7] = molecular target: Vascular endothelial growth factor receptor 2 (Homo sapiens, UniProt P35968); assay: Inhibition of KDR at 100 uM
[8] = molecular target: Platelet-derived growth factor receptor beta (Homo sapiens, UniProt P09619); assay: Inhibition of PDGFRbeta
[9] = molecular target: RAF proto-oncogene serine/threonine-protein kinase (Homo sapiens, UniProt P04049); assay: Inhibition of cRaf
[10] = molecular target: Inhibitor of nuclear factor kappa-B kinase subunit beta (Homo sapiens, UniProt O14920); assay: Inhibition of IKK-beta
[11] = molecular target: Rho-associated protein kinase 2 (Homo sapiens, UniProt O75116); assay: Inhibition of Rock2
Sequence of Rho-associated protein kinase 2 (O75116 whole entry): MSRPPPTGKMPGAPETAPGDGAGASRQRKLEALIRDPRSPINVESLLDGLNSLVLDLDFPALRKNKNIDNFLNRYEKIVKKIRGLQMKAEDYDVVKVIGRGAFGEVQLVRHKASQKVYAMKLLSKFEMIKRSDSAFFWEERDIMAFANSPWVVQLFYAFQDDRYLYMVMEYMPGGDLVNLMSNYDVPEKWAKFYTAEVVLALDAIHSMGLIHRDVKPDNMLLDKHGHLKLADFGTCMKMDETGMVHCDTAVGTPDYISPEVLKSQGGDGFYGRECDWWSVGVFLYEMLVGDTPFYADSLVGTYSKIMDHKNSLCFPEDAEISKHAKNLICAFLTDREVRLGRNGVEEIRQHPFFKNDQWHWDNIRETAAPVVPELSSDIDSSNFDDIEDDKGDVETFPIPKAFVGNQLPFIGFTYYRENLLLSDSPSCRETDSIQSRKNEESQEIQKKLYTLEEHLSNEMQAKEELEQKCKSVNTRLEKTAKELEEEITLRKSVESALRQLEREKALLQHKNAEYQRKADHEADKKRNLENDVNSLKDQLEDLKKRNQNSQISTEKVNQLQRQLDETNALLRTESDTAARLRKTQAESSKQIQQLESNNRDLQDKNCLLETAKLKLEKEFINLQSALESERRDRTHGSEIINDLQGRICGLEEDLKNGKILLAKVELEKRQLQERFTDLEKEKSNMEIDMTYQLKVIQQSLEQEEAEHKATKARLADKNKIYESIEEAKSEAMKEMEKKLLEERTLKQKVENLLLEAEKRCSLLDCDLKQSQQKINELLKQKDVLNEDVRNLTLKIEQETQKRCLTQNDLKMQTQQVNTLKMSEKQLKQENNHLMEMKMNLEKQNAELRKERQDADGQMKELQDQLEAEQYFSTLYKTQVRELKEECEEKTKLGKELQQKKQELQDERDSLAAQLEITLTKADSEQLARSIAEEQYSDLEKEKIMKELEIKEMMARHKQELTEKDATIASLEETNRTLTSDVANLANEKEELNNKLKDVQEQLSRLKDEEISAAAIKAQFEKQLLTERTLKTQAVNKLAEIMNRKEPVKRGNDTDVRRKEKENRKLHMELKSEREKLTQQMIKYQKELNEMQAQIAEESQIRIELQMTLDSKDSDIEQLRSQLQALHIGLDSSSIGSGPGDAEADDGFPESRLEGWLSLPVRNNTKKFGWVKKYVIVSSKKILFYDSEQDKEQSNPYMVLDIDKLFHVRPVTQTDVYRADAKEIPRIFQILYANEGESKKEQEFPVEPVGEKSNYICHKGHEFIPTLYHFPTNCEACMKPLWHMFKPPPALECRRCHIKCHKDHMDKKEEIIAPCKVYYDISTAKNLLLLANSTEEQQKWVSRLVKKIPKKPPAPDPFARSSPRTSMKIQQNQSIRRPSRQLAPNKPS

[12] = Inhibition of RON at 100 uM
[13] = molecular target: Proto-oncogene tyrosine-protein kinase Src (Homo sapiens, UniProt P12931); assay: Inhibition of SRC
[14] = molecular target: Dual specificity mitogen-activated protein kinase kinase 1 (Homo sapiens, UniProt Q02750); assay: Inhibition of MEK1
[15] = molecular target: RAC-alpha serine/threonine-protein kinase (Homo sapiens, UniProt P31749); assay: Inhibition of AKT1
[16] = Inhibition of PKA
[17] = molecular target: Protein kinase C alpha type (Homo sapiens, UniProt P17252); assay: Inhibition of PKCalpha
[18] = AUC (0 to infinity) in Sprague-Dawley rat at 50 mg/kg, po; assay type: ADME, organism-based; design: dose 50 mg/kg, route oral, time infinity; details: plasma
[19] = Oral bioavailability in Sprague-Dawley rat at 50 mg/kg; assay type: ADME, organism-based; details: in vivo
[20] = Clearance in Beagle dog at 2.5 mg/kg, iv; assay type: ADME, organism-based, Canis lupus familiaris; design: dose 2.5 mg/kg, route intravenous; details: in vivo
[21] = Volume of distribution at steady state in Beagle dog at 2.5 mg/kg, iv; assay type: ADME, organism-based, Canis lupus familiaris; design: dose 2.5 mg/kg, route intravenous; details: in vivo, read-out: Vdss
[22] = Half life in Beagle dog at 2.5 mg/kg, iv; assay type: ADME, organism-based, Canis lupus familiaris; design: dose 2.5 mg/kg, route intravenous; details: in vivo
[23] = Cmax in Beagle dog at 5 mg/kg, po; assay type: ADME, organism-based, Canis lupus familiaris; design: dose 5 mg/kg, route oral; details: in vivo
[24] = Plasma concentration in Beagle dog at 5 mg/kg, po after 24 hrs; assay type: ADME, organism-based, Canis lupus familiaris; design: dose 5 mg/kg, route oral
[25] = AUC (0 to infinity) in Beagle dog at 5 mg/kg, po; assay type: ADME, organism-based, Canis lupus familiaris; design: time infinity, dose 5 mg/kg, route oral; details: plasma
[26] = molecular target: Ribosomal protein S6 kinase beta-1 (Homo sapiens, UniProt P23443); assay: Inhibition of P70S6K
Aurora kinase A = Aurora kinase A (Homo sapiens, UniProt O14965); assay: Inhibition of AuroraA
[27] = Inhibition of CDK1/cyclin B
[28] = Inhibition of CDK2/cyclin A
[29] = Inhibition of CDK2/cyclin E
[30] = molecular target: Mitogen-activated protein kinase 10 (Homo sapiens, UniProt P53779); assay: Inhibition of JNK3
[31] = molecular target: Casein kinase II subunit alpha (Homo sapiens, UniProt P68400); assay: Inhibition of CK2
NIH3T3 [32] = assay: Inhibition of IGF1-stimulated purified AKT phosphorylation in mouse 3T3 cells; assay type: functional, cell-based
NIH3T3 [33] = assay: Inhibition of IGF1-stimulated purified ERK1 phosphorylation in mouse 3T3 cells; assay type: functional, cell-based
NIH3T3 [34] = assay: Inhibition of IGF1-stimulated p70S6K phosphorylation in mouse 3T3 cells; assay type: functional, cell-based
NIH3T3 [35] = assay: Inhibition of IGF1-induced proliferation of human IGF1R expressing mouse 3T3 cells; assay type: functional, cell-based
NIH3T3 [36] = assay: Antiproliferative activity against human IGF1R expressing mouse 3T3 cells; assay type: functional, cell-based
[37] = Inhibition of proliferation of human H292 cells; assay type: functional, cell-based; details: NCI-H292
[38] = Inhibition of proliferation of human Colo699 cells; assay type: functional; details: COLO 699
NCI-H358 [39] = assay: Inhibition of proliferation of human H358 cells; assay type: functional, cell-based
HT-29 [40] = assay: Inhibition of proliferation of human HT29 cells; assay type: functional, cell-based
[41] = Inhibition of proliferation of human GEO cells; assay type: functional, cell-based
COLO 205 [42] = assay: Inhibition of proliferation of human Colo205 cells; assay type: functional, cell-based
[43] = Induction of DNA fragmentation in human H292 cells at 10 uM relative to control; assay type: functional
[44] = Induction of DNA fragmentation in human Colo699 cells at 10 uM relative to control; assay type: functional
NCI-H358 [45] = assay: Induction of DNA fragmentation in human H358 cells at 10 uM relative to control; assay type: functional
HT-29 [46] = assay: Induction of DNA fragmentation in human HT29 cells at 10 uM relative to control; assay type: functional
[47] = Induction of DNA fragmentation in human GEO cells at 10 uM relative to control; assay type: functional
COLO 205 [48] = assay: Induction of DNA fragmentation in human Colo205 cells at 10 uM relative to control; assay type: functional
[49] = Clearance in CD1 mouse at 5 mg/kg, iv; assay type: ADME, organism-based; design: dose 5 mg/kg, route intravenous; details: in vivo
[50] = Volume of distribution at steady state in CD1 mouse at 5 mg/kg, iv; assay type: ADME, organism-based; design: dose 5 mg/kg, route intravenous; details: in vivo, read-out: Vdss
[51] = Half life in CD1 mouse at 5 mg/kg, iv; assay type: ADME, organism-based; design: dose 5 mg/kg, route intravenous; details: in vivo
[52] = Cmax in CD1 mouse at 25 mg/kg, po; assay type: ADME, organism-based; design: dose 25 mg/kg, route oral; details: in vivo
[53] = Plasma concentration in CD1 mouse at 25 mg/kg, po after 24 hrs; assay type: ADME, organism-based; design: dose 25 mg/kg, route oral
[54] = AUC (0 to infinity) in CD1 mouse at 25 mg/kg, po; assay type: ADME, organism-based; design: time infinity, dose 25 mg/kg, route oral; details: plasma
[55] = Oral bioavailability in CD1 mouse at 25 mg/kg; assay type: ADME, organism-based; details: in vivo
[56] = Clearance in Sprague-Dawley rat at 1 mg/kg, iv; assay type: ADME, organism-based; design: dose 1 mg/kg, route intravenous; details: in vivo
[57] = Volume of distribution at steady state in Sprague-Dawley rat at 1 mg/kg, iv; assay type: ADME, organism-based; design: dose 1 mg/kg, route intravenous; details: in vivo, read-out: Vdss
[58] = Cmax in Sprague-Dawley rat at 50 mg/kg, po; assay type: ADME, organism-based; design: dose 50 mg/kg, route oral; details: in vivo
[59] = Plasma concentration in Sprague-Dawley rat at 50 mg/kg, po after 24 hrs; assay type: ADME, organism-based; design: dose 50 mg/kg, route oral
[60] = Oral bioavailability in Beagle dog at 5 mg/kg; assay type: ADME, organism-based, Canis lupus familiaris; details: in vivo
NIH3T3 [61] = assay: Antitumor activity in IGFR expressing mouse 3T3 cells xenografted nu/nu CD1 mouse at 25 mg/kg, po administered once daily for 14 days; assay type: functional; details: CD1, NIH3T3, 336 h, read-out: TGI
NIH3T3 [62] = assay: Antitumor activity in IGFR expressing mouse 3T3 cells xenografted nu/nu CD1 mouse at 75 mg/kg, po administered once daily for 14 days; assay type: functional; details: CD1, NIH3T3, 336 h, read-out: TGI
Mus musculus [63] = assay: Effect on blood glucose level in CD1 mouse at 25 mg/kg, po for 14 days; assay type: functional
Mus musculus [64] = assay: Increase in blood glucose level in CD1 mouse at 50 mg/kg, po for 14 days; assay type: functional
Mus musculus [65] = assay: Increase in blood glucose level in CD1 mouse at 100 mg/kg, po for 14 days; assay type: functional
Mus musculus [66] = assay: Increase in glucose level in CD1 mouse at 100 mg/kg, po 2 hrs after glucose challenge; assay type: functional
Mus musculus [67] = assay: Effect on plasma insulin level in CD1 mouse at 25 mg/kg, po after 4 hrs; assay type: functional
Mus musculus [68] = assay: Effect on plasma insulin level in CD1 mouse at 50 mg/kg, po after 4 hrs; assay type: functional
Mus musculus [69] = assay: Effect on plasma insulin level in CD1 mouse at 100 mg/kg, po after 4 hrs; assay type: functional
[70] = Half life in Sprague-Dawley rat at 1 mg/kg, iv; assay type: ADME, organism-based; design: dose 1 mg/kg, route intravenous; details: in vivo
[71] = molecular target: Mitogen-activated protein kinase 1 (Mus musculus) (UniProt P63085); assay: Inhibition of IGF1-stimulated purified ERK2 phosphorylation in mouse 3T3 cells; assay type: cell-based; details: NIH3T3
[72] = molecular target: T1, Insulin-like growth factor 1 receptor
Description: Inhibition of human recombinant full length IGF1R expressed in mouse 3T3 cells

Insulin receptor = Insulin receptor (Homo sapiens, UniProt P06213); assay: Inhibition of human purified insulin receptor in biochemical assay at 100 uM ATP

Sequence of Cytochrome P450 3A4 (P08684 whole entry): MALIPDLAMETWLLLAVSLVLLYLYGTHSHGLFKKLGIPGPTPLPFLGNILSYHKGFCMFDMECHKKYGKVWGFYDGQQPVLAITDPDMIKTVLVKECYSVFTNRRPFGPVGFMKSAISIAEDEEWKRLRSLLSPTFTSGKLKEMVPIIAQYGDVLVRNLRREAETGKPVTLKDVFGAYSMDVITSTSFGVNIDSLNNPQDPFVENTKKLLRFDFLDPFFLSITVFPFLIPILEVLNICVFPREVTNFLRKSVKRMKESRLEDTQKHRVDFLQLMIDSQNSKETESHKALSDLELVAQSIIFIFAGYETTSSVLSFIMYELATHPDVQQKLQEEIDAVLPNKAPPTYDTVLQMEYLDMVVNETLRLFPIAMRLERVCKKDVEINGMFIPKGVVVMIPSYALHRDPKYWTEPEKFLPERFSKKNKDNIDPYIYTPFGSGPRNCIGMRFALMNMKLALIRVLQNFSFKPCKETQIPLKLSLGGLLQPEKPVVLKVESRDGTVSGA
T1 sequence (P08069 31-736 limits assumed): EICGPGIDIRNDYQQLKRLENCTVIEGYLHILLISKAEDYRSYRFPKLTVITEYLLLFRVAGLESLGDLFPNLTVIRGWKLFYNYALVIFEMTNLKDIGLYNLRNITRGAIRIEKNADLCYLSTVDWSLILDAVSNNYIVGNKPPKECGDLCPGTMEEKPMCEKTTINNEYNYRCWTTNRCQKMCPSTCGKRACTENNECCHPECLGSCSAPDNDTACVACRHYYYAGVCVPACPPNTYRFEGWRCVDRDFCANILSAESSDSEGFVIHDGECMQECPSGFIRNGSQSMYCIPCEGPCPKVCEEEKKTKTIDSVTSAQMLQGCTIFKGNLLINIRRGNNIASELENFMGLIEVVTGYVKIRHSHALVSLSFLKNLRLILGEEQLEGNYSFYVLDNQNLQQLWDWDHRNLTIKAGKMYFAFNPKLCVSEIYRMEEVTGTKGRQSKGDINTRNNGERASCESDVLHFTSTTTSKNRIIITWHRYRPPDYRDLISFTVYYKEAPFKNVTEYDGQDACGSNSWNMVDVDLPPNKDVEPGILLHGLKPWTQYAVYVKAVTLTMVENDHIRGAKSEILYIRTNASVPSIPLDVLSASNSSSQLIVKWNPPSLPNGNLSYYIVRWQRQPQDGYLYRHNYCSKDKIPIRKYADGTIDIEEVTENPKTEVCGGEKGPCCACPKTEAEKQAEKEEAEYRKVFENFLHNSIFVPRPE
T1 sequence (P08069 741-1367 limits assumed): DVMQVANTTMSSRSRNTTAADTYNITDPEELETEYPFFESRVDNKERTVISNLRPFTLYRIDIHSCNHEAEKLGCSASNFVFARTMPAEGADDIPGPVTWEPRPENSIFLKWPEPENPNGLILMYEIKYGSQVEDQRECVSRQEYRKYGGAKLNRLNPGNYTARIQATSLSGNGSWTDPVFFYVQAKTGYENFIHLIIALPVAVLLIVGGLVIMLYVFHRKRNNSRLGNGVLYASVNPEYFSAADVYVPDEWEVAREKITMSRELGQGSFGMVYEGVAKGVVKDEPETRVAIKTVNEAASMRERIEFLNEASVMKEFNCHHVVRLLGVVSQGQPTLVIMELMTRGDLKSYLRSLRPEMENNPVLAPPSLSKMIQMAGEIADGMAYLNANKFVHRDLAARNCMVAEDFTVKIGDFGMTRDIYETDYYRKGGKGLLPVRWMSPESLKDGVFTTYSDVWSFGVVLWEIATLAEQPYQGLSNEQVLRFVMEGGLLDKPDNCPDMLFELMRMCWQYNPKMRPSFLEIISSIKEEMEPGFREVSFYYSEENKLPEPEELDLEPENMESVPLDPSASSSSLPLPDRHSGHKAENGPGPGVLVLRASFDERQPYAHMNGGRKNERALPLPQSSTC

Nc1nccn2c1c(-c1ccc3ccc(-c4ccccc4)nc3c1)nc2[C@H]1C[C@@H](N2CCSCC2)C1
IC50 (Cytochrome P450 3A4): 7.8 µM

Nc1nccn2c1c(-c1ccc3ccc(-c4ccccc4)nc3c1)nc2[C@H]1C[C@@H](CN2CCC2)C1
IC50 (Cytochrome P450 3A4): > 20 µM | IC50 [1]: 0.035 µM | IC50 [2]: > 10 µM | IC50 [3]: > 10 µM | IC50 [4]: > 10 µM | IC50 [5]: > 10 µM | IC50 (Focal adhesion kinase 1): > 10 µM | IC50 [6]: > 10 µM | IC50 [7]: 4.3 µM | IC50 [8]: > 10 µM | IC50 [9]: > 10 µM | IC50 [10]: > 10 µM | IC50 [11]: > 5 µM | IC50 [12]: 5.9 µM | IC50 [13]: > 10 µM | IC50 [14]: > 10 µM | IC50 [15]: > 10 µM | IC50 [16]: > 10 µM | IC50 [17]: > 10 µM | AUC(0-inf) [18]: 37400 ng·h/mL | bioavailability [19]: 38% | clearance [20]: 30 mL/min/kg | Vd [21]: 50 L/kg | half-life [22]: 19 h | Cmax [23]: 170 nM | concentration at 24 h [24]: 90 nM | AUC(0-inf) [25]: 3010 ng·h/mL | IC50 [26]: > 10 µM | IC50 (Aurora kinase A): > 10 µM | IC50 [27]: > 10 µM | IC50 [28]: > 10 µM | IC50 [29]: > 10 µM | IC50 [30]: > 10 µM | IC50 [31]: > 10 µM | Activity (NIH3T3 [32]): Dose-dependent effect | Activity (NIH3T3 [33]): Dose-dependent effect | Activity (NIH3T3 [34]): Dose-dependent effect | IC50 (NIH3T3 [35]): 0.05 µM | IC50 (NIH3T3 [36]): 0.05 µM | IC50 [37]: 1.95 µM | IC50 [38]: 0.69 µM | IC50 (NCI-H358 [39]): 2.98 µM | IC50 (HT-29 [40]): 1.26 µM | IC50 [41]: 0.27 µM | IC50 (COLO 205 [42]): 0.93 µM | Activity [43]: 51 | Activity [44]: 16 | Activity (NCI-H358 [45]): 2.7 | Activity (HT-29 [46]): 46 | Activity [47]: 4 | Activity (COLO 205 [48]): 0.8 | clearance [49]: 24 mL/min/kg | Vd [50]: 10 L/kg | half-life [51]: 5.1 h | Cmax [52]: 3400 nM | concentration at 24 h [53]: 400 nM | AUC(0-inf) [54]: 25600 ng·h/mL | bioavailability [55]: 100% | clearance [56]: 10 mL/min/kg | Vd [57]: 14 L/kg | Cmax [58]: 1600 nM | concentration at 24 h [59]: 900 nM | bioavailability [60]: 94% | inhibition in vivo at 25 mg/kg (NIH3T3 [61]): 92% | inhibition in vivo at 75 mg/kg (NIH3T3 [62]): > 100% | Activity (Mus musculus [63]): -2.9% | Activity (Mus musculus [64]): 18% | Activity (Mus musculus [65]): 75% | Activity (Mus musculus [66]): 44% | Activity (Mus musculus [67]): 13.1 ng/mL | Activity (Mus musculus [68]): 14.7 ng/mL | Activity (Mus musculus [69]): 27 ng/mL | half-life [70]: 19.9 h | Activity [71]: Dose-dependent effect | IC50 [72]: 0.02 µM | IC50 (Insulin receptor): 0.076 µM

Nc1nccn2c1c(-c1ccc3ccc(-c4ccccc4)nc3c1)nc2[C@H]1C[C@H](CN2CCOCC2)C1
IC50 (Cytochrome P450 3A4): > 20 µM

Nc1nccn2c1c(-c1ccc3ccc(-c4ccccc4)nc3c1)nc2[C@H]1C[C@@H](N2CCCC2)C1
IC50 (Cytochrome P450 3A4): 17 µM
